Reference: publication PMC4399838, “Antipsychotic-Like Effect of the Muscarinic Acetylcholine Receptor Agonist BuTAC in Non-Human Primates” (PLoS ONE, 2015)

Experiments:
[1] = molecular target: T1, human M4 muscarinic receptor (Homo sapiens, UniProt P08173); experiment: GTP-γ-[35S] binding, antibody capture SPA (agonist and antagonist mode); assay type: biochemical
T1 construct: purchased PerkinElmer Life and Analytical Sciences, Boston, MA
T1 sequence (P08173 1-479): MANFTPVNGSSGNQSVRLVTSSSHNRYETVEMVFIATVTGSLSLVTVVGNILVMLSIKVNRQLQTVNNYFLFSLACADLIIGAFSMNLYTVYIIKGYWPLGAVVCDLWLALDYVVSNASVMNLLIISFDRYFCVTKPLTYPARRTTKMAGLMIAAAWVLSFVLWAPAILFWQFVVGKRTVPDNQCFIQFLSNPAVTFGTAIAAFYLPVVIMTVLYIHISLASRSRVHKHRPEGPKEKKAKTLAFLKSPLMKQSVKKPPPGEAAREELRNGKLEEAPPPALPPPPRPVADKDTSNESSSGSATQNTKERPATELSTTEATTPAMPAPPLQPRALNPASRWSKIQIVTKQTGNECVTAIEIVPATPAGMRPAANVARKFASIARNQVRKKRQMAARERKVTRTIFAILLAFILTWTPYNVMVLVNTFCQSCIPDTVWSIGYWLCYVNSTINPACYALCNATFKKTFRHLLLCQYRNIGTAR
Experimental: (§1) The antibody capture scintillation proximity technique previously described by DeLapp et al was used in a 96-well plate to determine GTP-γ-[35S] binding. One hundred μl (20–40 fmol/well) of membrane preparation from CHO cells that stably express the human M1-M5 muscarinic receptors (PerkinElmer Life and Analytical Sciences, Boston, MA) were incubated with varying concentration of test compound (final concentrations from 50pM to 1μM) for 30 min. One μM final concentration of GDP was added to M2 and M4 receptor membranes before incubation. […] (500 pM final concentration; Perkin Elmer Life and Analytical Sciences) was added to each well followed by 30 min of incubation. […] An anti-Gαq/11 antibody was used for the M1-, M3-, and M5 membranes, whereas an anti-Gαi-3 antibody was used for the M2- and M4 membranes (Eli Lilly and Company, Indianapolis, IN). […] By use of a Wallac MicroBeta TriLux scintillation counter (PerkinElmer), the plates were centrifuged for 10 min at 700 × g and counted for 1 min per well. The incubations took place at room temperature in GTP-binding assay buffer (20 mM Hepes, 100 mm NaCl, 5 mM MgC12, pH 7.4). The data were analyzed by use of nonlinear regression for a sigmoidal concentration response curve (GraphPad Prism v. 4.0). Data were normalized to a full agonist response (100 μM oxotremorine-M). […] The antagonist percent inhibition data were normalized to data generated with an EC90 concentration of acetylcholine. The mean relative EC50, IC50, and %Emax, and pKi values were calculated as a mean of at least three independent experiments±SEM. In order to obtain relevant comparisons between subtypes, the experimental system is routinely calibrated with reference agonists (oxotremorine-M, pilocarpine, MCN-A343) to measure full and partial agonism as well as to ensure that the system is not under- or over-reporting functional efficacies. The radioligand binding assays have earlier been described.

[2] = molecular target: T2, human M5 muscarinic receptor (Homo sapiens, UniProt P08912); experiment: as above; assay type: biochemical
T2 construct: purchased PerkinElmer Life and Analytical Sciences, Boston, MA
T2 sequence (P08912 1-532): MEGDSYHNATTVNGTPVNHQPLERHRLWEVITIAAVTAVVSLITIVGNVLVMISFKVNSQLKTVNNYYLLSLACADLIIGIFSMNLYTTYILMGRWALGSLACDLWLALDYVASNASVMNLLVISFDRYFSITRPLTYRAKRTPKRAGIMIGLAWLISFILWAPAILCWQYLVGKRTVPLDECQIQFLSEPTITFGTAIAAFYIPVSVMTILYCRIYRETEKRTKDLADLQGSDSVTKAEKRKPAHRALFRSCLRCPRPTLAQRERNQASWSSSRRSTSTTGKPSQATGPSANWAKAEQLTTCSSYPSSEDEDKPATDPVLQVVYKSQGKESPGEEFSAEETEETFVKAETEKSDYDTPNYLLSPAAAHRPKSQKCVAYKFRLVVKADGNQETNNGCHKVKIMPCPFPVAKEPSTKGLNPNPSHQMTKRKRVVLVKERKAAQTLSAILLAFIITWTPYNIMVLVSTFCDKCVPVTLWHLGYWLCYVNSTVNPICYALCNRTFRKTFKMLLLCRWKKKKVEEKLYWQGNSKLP
Experimental: as §1

[3] = molecular target: T3, human M2 muscarinic receptor (Homo sapiens, UniProt P08172); experiment: as above; assay type: biochemical
T3 construct: purchased PerkinElmer Life and Analytical Sciences, Boston, MA
T3 sequence (P08172 1-466): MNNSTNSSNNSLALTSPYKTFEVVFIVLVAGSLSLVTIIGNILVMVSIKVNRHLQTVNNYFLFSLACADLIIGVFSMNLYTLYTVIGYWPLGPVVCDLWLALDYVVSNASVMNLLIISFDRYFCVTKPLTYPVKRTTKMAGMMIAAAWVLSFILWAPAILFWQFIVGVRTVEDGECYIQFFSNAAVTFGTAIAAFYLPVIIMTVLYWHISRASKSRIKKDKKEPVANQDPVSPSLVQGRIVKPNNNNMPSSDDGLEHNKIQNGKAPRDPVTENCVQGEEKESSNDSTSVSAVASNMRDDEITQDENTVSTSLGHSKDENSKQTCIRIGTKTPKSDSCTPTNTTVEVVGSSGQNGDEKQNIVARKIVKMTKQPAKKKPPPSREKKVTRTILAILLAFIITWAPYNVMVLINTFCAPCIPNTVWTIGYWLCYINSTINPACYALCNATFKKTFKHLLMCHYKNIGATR
Experimental: (§2) The antibody capture scintillation proximity technique previously described by DeLapp et al was used in a 96-well plate to determine GTP-γ-[35S] binding. One hundred μl (20–40 fmol/well) of membrane preparation from CHO cells that stably express the human M1-M5 muscarinic receptors (PerkinElmer Life and Analytical Sciences, Boston, MA) were incubated with varying concentration of test compound (final concentrations from 50pM to 1μM) for 30 min. One μM final concentration of GDP was added to M2 and M4 receptor membranes before incubation. […] (500 pM final concentration; Perkin Elmer Life and Analytical Sciences) was added to each well followed by 30 min of incubation. Then the labelled membranes were solubilized with 0.27% Nonidet P40 for 30 min where after they were incubated with 20 μl (final dilution of 1:400) of the appropriate rabbit polyclonal Gα antibody (Covance, Princeton, NJ) for 60 min. An anti-Gαq/11 antibody was used for the M1-, M3-, and M5 membranes, whereas an anti-Gαi-3 antibody was used for the M2- and M4 membranes (Eli Lilly and Company, Indianapolis, IN). After 60 min of incubation, 50 μl (1.25 mg/well) anti-rabbit scintillation proximity assay (SPA) beads (GE Healthcare, Piscataway, NJ) were added per well where after the plates were incubated for another 3 h. By use of a Wallac MicroBeta TriLux scintillation counter (PerkinElmer), the plates were centrifuged for 10 min at 700 × g and counted for 1 min per well. The incubations took place at room temperature in GTP-binding assay buffer (20 mM Hepes, 100 mm NaCl, 5 mM MgC12, pH 7.4). The data were analyzed by use of nonlinear regression for a sigmoidal concentration response curve (GraphPad Prism v. 4.0). Data were normalized to a full agonist response (100 μM oxotremorine-M). […] The antagonist percent inhibition data were normalized to data generated with an EC90 concentration of acetylcholine. The mean relative EC50, IC50, and %Emax, and pKi values were calculated as a mean of at least three independent experiments±SEM. In order to obtain relevant comparisons between subtypes, the experimental system is routinely calibrated with reference agonists (oxotremorine-M, pilocarpine, MCN-A343) to measure full and partial agonism as well as to ensure that the system is not under- or over-reporting functional efficacies. The radioligand binding assays have earlier been described.

[4] = molecular target: T4, human M3 muscarinic receptor (Homo sapiens, UniProt P20309); experiment: as above; assay type: biochemical
T4 construct: purchased PerkinElmer Life and Analytical Sciences, Boston, MA
T4 sequence (P20309 whole entry): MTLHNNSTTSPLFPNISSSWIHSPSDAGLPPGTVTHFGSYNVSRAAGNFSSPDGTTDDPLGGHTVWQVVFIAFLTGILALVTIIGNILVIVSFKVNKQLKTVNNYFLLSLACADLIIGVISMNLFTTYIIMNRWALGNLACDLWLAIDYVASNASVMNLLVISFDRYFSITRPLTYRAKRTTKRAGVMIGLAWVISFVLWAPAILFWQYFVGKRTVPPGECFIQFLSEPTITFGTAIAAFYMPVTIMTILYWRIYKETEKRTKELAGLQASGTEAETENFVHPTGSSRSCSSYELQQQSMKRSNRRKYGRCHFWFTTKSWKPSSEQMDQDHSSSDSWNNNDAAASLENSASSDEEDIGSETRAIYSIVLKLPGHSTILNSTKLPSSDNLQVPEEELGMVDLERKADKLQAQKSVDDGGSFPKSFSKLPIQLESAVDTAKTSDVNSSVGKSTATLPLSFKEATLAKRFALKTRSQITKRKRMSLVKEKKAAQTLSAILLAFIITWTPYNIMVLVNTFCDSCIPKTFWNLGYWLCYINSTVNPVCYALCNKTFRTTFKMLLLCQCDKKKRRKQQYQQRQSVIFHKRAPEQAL
Experimental: as §2

[5] = molecular target: M3AChR (Homo sapiens, UniProt P20309); experiment: Competitive radioligand binding; conditions: competitive binding; negative log-transformed; read-out: pKi (converted)
Chain of M3AChR (P20309 whole entry): as above

[6] = test system: schizophrenic patients; design: method as in PMID 13425257; conditions: subcutaneous injection, twenty-three schizophrenic patients; cited from earlier work
[7] = test system: antipsychotic-naïve Cebus Apella monkeys; experiment: d-Amphetamine-induced behaviour (unrest, stereotypies, arousal), video rating; assay type: in vivo
Experimental: (§3) Seven male Cebus Apella monkeys were used for evaluation the anti-amphetamine effect and the side effect profile of BuTAC. These monkeys were never before administered antipsychotics and had never experienced EPS, but had previously been administered amphetamine. For further evaluation of the EPS potential of BuTAC, the compound was tested in four male and female monkeys, all sensitized to drug-induced EPS by earlier chronic treatment with classical antipsychotic drugs.
(§4) All monkeys received all treatments with at least one week between tests and thus served as their own control. To avoid extended physical contact with the experimenter, the cages were reduced in sized by moving the back wall of the cage closer to the front wall to lightly immobilize the monkey while injecting the test substance in the thigh. This was done at 9 am at test days. After the appropriate pre-treatment time, the monkeys were videotaped in their cages at predefined time points after drug injection.
(§5) The rated primate behaviours and symptoms were the following: unrest, stereotypy, arousal, sedation and bradykinesia (Table 1). All monkeys were videotaped in 90-sec. sessions at specific time points throughout the test sessions. The videotapes were rated for amphetamine-induced behaviours and EPS by two experienced raters blinded to the treatment of the animal by means of a rating scale adapted from Peacock et al. and previously described by Andersen et al. (Table 1). In case of any discrepancy between the two ratings, the recording in question was re-evaluated and a rating agreed upon. The monkeys were videotaped at t = 30, 60, 90, 135, 150, 165, 180, 240, 300 min after BuTAC (or vehicle) administration. For the combination studies, d-amphetamine was injected at t = 120 min. Oral dyskinesia was measured in counts per 90 sec. The severity of other behaviours and symptoms were rated on a scale ranging from 0 (not present) to 6 (extreme presence).
(§6) For evaluation of anti-amphetamine effects, BuTAC was tested in doses of 0.001, 0.003, 0.01 mg/kg in combination with 0.5 mg/kg of d-amphetamine. BuTAC or peanut oil vehicle was injected s.c. at approximately 9 a.m. Pre-treatment time before s.c. injection of amphetamine was 120 min. For evaluation of side effects, BuTAC was tested alone at doses of 0.001, 0.003 and 0.01 mg/kg in antipsychotic-naïve monkeys and at doses of 0.003 and 0.01 mg/kg in monkeys sensitized to extrapyramidal side effects (EPS) by earlier long-term treatment with first generation antipsychotics. […] None of the animals were sacrificed.
(§7) Data from the experiments where BuTAC was administered alone collected at t = 60, 180, 300 min are presented. For the d-amphetamine / BuTAC study, data collected at t(amp) = 60, 120 and 180 min (t = 180, 240, 300 min) are reported. Data were analyzed for overall treatment effects at each time point by means of the non-parametric Friedman’s test for repeated measures. The Student Newman-Keuls comparison procedure was used to analyze for specific dose effects. For all tests, the accepted level of significance was p<0.05.

[8] = test system: antipsychotic-naïve Cebus Apella monkeys; experiment: Side effects of BuTAC alone or with d-amphetamine; assay type: in vivo; conditions: d-amphetamine 0.5 mg/kg alone
Experimental: as §3, §4, §5, §6, §7

[9] = test system: monkeys; experiment: BuTAC-induced emesis and its inhibition by domperidone; assay type: in vivo, Cebus Apella
Experimental: S1 Table. Emesis BuTAC / Domperidone
BuTAC 0.01 mg/kg / 1 in 7
Domperidone was purchased from Tocris Bioscience (Bristol, United Kingdom) and dissolved
in 0.9% saline. The compound was administered subcutaneously where after the animals

[10] = test system: monkeys; design: method as in PMID 10435384; conditions: cited from earlier work
[11] = antagonist mode, maximal inhibition of EC90 agonist response
[12] = percentage of maximum 100 μM oxotremorine-M signal, read-out: % Emax
[13] = percentage of maximum 100 μM oxotremorine-M signal

CCCCCCOc1nsnc1C1=CCCN(C)C1 [Xanomeline, xanomeline]
% Inhibition [1, 11]: 51.4 ± 2.61%
Emax [1, 12]: 41.8 ± 1.99%
% Inhibition [2, 11]: 81.8 ± 18.5%
Emax [2, 12]: 28.7 ± 0.7%
% Inhibition [3, 11]: 19.4 ± 0.77%
Emax [3, 13]: 55.2 ± 5.12%
EC50 ([4]; agonist mode, mean ± SEM of negative log-transformed values, read-out: Rel pEC50 (converted)): 17.8 nM
IC50 ([4]; antagonist mode against EC90 of agonist, negative log-transformed, read-out: Rel pIC50 (converted)): 832 nM
% Inhibition [4, 11]: 87.6 ± 6.79%
Emax [4, 13]: 13.6 ± 0.56%
Ki [5]: 27.5 nM

COC(=O)C1=CCCN(C)C1 [arecoline]
Patients with clinical improvement (“lucid intervals”) [6]: more than 80%

C[C@H](N)Cc1ccccc1.C[C@H](N)Cc1ccccc1.O=S(=O)(O)O [d-amphetamine, d-Amphetamine sulphate, reference compound]
Stereotypies ([7]; amphetamine 0.5 mg/kg alone, all three test times): significantly induced stereotypies
Arousal ([7]; d-amphetamine 0.5 mg/kg alone, all test times): induced arousal
Unrest ([7]; d-amphetamine 0.5 mg/kg alone, all time points, relative to vehicle): significantly increased unrest
Emetic events (vomiting) (monkeys affected) [8]: 0
Salivation (monkeys affected) [8]: 0
Sedation 2 ≤ X ≤ 5 (monkeys affected) [8]: 0

O=c1[nH]c2ccccc2n1CCCN1CCC(n2c(=O)[nH]c3cc(Cl)ccc32)CC1 [domperidone]
Emetic events (vomiting), monkeys with emesis ([9]; BuTAC 0.01 mg/kg / domperidone 0.05 mg/kg s.c.): 3/7
Emetic events (vomiting), monkeys with emesis ([9]; BuTAC 0.01 mg/kg / domperidone 0.10 mg/kg s.c.): 1/7
Effect on BuTAC (0.01 mg/kg)-induced emesis ([9]; domperidone 0.05 and 0.1 mg/kg): dose dependently inhibited

O=C(CCCN1CCC(O)(c2ccc(Cl)cc2)CC1)c1ccc(F)cc1 [haloperidol]
Minimal effective dose to inhibit amphetamine-induced behaviour [10]: 0.015 mg/kg
